From ChEMBL document CHEMBL1201862, “PubChem BioAssay data set” (2004)
Calls of active or inactive are those of the source.

Assays:
[1] = CellTiter-Glo luminescence survival assay, SW480 colon tumor line, concentration-response curve, half-maximal inhibitory concentration (AID 1117338); type: functional
[2] = RKO cell viability reduction, dose response, CellTiter-Glo luminescence (AID 1117322); type: functional
[3] = cytotoxicity toward HCT116 cells – cell-based, CellTiter-Glo luminescence, IC50, dose response (AID 1117332); type: functional; details: HCT-116
[4] = SNU-C1 cell viability reduction, dose response, CellTiter-Glo luminescence (AID 1117323); type: functional, cell-based
[5] = cytotoxicity toward Colo320 cells – cell-based, CellTiter-Glo luminescence, IC50, dose response (AID 1117334); type: functional; details: COLO 320
[6] = cytotoxicity toward HT-29 cells – cell-based, CellTiter-Glo luminescence, IC50, dose response (AID 1117330); type: functional
[7] = Reduced DLD-1 viability, concentration-response, CellTiter-Glo luminescence (AID 1117352); type: functional
[8] = HCT116 cell viability decrease, GSK3B pretreatment – CellTiter-Glo, IC50, dose response (AID 1117339); type: functional; details: HCT-116
[9] = target: G-protein coupled receptor 183 (Homo sapiens, UniProt P32249); test: SAR confirmation of small molecule antagonists of the EBI2 receptor via a luminescent beta-arrestin assa.; type: functional
[10] = IC50 of insulin release inhibition, rat insulinoma INS-1E line, 5 mM glucose, cell-based (AID 1117331); type: functional
[11] = glucagon-like peptide-1 release potency in STC-1, concentration-response, half-maximal inhibitory concentration in the STC-1 line (AID 1117345); type: functional, cell-based
[12] = Potency on glucagon-like peptide 1 release, dose-response in NCI-H716 cell line, half maximal inhibitory concentration (AID 1117344); type: functional, cell-based
[13] = target: Heat shock protein HSP 90-alpha (Homo sapiens, UniProt P07900); test: Luminescence-based dose response biochemical high throughput screening assay for inhibitors of the Heat Shock Protein 90 (HSP90). [Related pubchem assays: 1831 (Summary AID.), 1846 (Confirmation screen.), 1789 (Primary screen.)]
[14] = HIV-1 Vif–A3G interaction blockers – biochemical, TR-FRET, GST-Vif 1-94, biotin-A3G peptide, dose response retest, primary screen (AID 1117319); type: functional;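 further: TR-FRET signal of purified GST-Vif binding a biotinylated A3G peptide; inhibitors lower the FRET signal by blocking Vif and A3G binding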
[15] = Dd2 parasite growth inhibition in erythrocytes – SYBR Green, dry powder samples, set 9, dose response (AID 1159568); type: functional, cell-based
[16] = Luminescence Cell-Based Dose Response to Identify Activators of 5'UTR Stem-Loop Driven Prion Protein mRNA Translation in H4-C Neuroglioblastoma Cells. [Related pubchem assays: 1829 (Project Summary), 1814 (Primary HTS)]; type: functional
[17] = Luminescence Cell-Based Dose Response HTS to Identify Activators of Luciferase Translation or Activity in H4 […] Cells. [Related pubchem assays: 1829 (Project Summary), 1814 (Primary HTS)]; type: functional
H4 = test: Luminescence Cell-Based Dose Response HTS to Identify Activators of 5'UTR Stem-Loop Driven Prion Protein mRNA Translation in H4 Neuroglioblastoma Cells. [Related pubchem assays: 1829 (Project Summary), 1814 (Primary HTS)]; type: functional; details: Homo sapiens
[18] = Luminescence Cell-Based Dose Response to Identify Activators of Luciferase Translation or Activity in H4-C Neuroglioblastoma Cells. [Related pubchem assays: 1829 (Project Summary), 1814 (Primary HTS)]; type: functional
[19] = Luminescence Cell-Based Dose Confirmation to Identify Activators of 5'UTR Stem-Loop Driven Alpha-Synuclein mRNA Translation in H4 Neuroglioblastoma Cells. [Related pubchem assays: 1829 (Project Summary), 1814 (Primary HTS)]; type: functional
Vero [20] = test: mammalian cell viability reduction – secondary assay, cytotoxicity control for West Nile virus antiviral project, dose response (AID 1650); type: functional; details: Chlorocebus sabaeus
Vero [21] = test: cells; type: functional; details: Chlorocebus sabaeus
[22] = target: T1, Rac GTPase-activating protein 1 (Homo sapiens, UniProt Q9H0H5); test: blockers of MgcRacGAP-driven Rac1 GTP hydrolysis – biochemical, ADP Hunter fluorescence, primary and confirmatory, confirmation (AID 624330); type: functional
T1 sequence (Q9H0H5 whole entry): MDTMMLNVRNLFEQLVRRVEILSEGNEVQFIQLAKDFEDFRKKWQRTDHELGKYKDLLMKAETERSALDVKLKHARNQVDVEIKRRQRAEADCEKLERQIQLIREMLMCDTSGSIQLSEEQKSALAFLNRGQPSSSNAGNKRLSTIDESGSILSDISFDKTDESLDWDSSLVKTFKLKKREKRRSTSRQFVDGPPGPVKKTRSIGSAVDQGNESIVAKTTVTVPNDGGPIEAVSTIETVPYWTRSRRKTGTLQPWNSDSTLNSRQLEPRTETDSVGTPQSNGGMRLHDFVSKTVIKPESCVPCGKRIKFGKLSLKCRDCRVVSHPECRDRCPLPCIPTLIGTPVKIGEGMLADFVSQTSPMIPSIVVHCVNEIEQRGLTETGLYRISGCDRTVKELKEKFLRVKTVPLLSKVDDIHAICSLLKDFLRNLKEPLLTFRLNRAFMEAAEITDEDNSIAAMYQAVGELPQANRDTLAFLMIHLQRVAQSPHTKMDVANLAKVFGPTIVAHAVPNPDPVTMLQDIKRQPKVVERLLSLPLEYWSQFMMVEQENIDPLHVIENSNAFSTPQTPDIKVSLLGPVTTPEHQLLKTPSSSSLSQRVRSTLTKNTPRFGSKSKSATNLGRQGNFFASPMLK

Protein Tat = target: T2, Protein Tat (Human immunodeficiency virus type 1 group M subtype B (isolate HXB2)(HIV-1), UniProt P04608); type: functional;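 further: tat binding to TAR RNA read out by fluorescence polarization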
T2 sequence (P04608 whole entry): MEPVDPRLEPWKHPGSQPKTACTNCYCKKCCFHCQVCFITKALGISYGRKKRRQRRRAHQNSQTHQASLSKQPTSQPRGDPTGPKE

[23] = viability loss in THP-1 monocytes – THP-1 cells, cytotoxicity control for Vif-APOBEC3G degradation inhibitor project, dose response (AID 1117359); type: functional; details: THP-1
[24] = Luminescence Cell-Based Dose Confirmation HTS to Identify Activators of 5'UTR Stem-Loop Driven Alpha-Synuclein mRNA Translation in H4 Neuroglioblastoma Cells. [Related pubchem assays: 1829 (Project Summary), 1814 (Primary HTS)]; type: functional

G-protein coupled receptor 183, sequence (P32249 whole entry): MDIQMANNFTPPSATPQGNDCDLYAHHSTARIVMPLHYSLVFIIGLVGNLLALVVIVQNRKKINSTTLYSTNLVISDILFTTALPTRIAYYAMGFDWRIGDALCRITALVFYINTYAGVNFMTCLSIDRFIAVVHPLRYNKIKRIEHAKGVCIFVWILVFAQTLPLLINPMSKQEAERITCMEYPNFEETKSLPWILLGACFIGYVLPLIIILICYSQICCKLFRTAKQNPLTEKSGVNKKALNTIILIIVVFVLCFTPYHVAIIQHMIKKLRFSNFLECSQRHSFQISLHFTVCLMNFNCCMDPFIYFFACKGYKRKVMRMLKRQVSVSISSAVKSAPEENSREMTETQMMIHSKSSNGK

SMILES: CCCCCCCCCCCCCCCC(=O)OCC=C(C)C=CC=C(C)C=CC1=C(C)CCCC1(C)C
- IC50 [1]: > 20 µM (inactive)
- IC50 [2]: > 20 µM (inactive)
- IC50 [3]: > 20 µM (inactive)
- IC50 [4]: > 20 µM (inactive)
- IC50 [5]: > 20 µM (inactive)
- IC50 [6]: > 20 µM (inactive)
- IC50 [7]: > 20 µM (inactive)
- IC50 [8]: > 20 µM (inactive)

SMILES: O=C(/C=C/c1ccc(F)cc1)N1CCN(S(=O)(=O)c2ccccc2)CC1
- IC50 [9]: 0.0125 µM (active)

SMILES: CC(=C(CCOC(=O)C(C)C)SSC(CCOC(=O)C(C)C)=C(C)N(C=O)Cc1cnc(C)nc1N)N(C=O)Cc1cnc(C)nc1N [SULBUTIAMINE]
- IC50 [10]: > 33.3 µM (inactive)
- IC50 [11]: > 40 µM (inactive)
- IC50 [12]: 2.39 µM (active)

SMILES: COc1ccccc1Nc1nn2c(=O)c3ccc(C(=O)NCc4cccnc4)cc3nc2s1
- IC50 [13]: 4.9 µM (active)

SMILES: CCC(Sc1nc(O)cc(-c2ccccc2)n1)C(=O)O (stereo unspecified)
- IC50 [14]: > 100 µM (active)

SMILES: C[C@@H]1CN([C@@H](C)CO)C(=O)c2cc(C#Cc3ccccc3)cnc2O[C@H]1CN(C)C(=O)c1ccccc1
- AC50 [15]: 4.99 µM (active)

SMILES: CCCCSc1nc2c(cnn2-c2ccccc2)c(=O)n1N
- EC50 [16]: 0.348 µM (active)
- EC50 [17]: < 0.1 µM (active)
- EC50 (H4): > 120 µM (not active)
- EC50 [18]: 0.347 µM (active)
- EC50 [19]: 0.646 µM (active)

SMILES: CC(=O)OC1CC[C@]2(C#N)[C@H]3CC[C@]4(C)[C@H](C5C=CC(=O)O5)CCC4(O)C3CCC2(O)C1 (stereo partly specified)
- CC50 (Vero [20]): 13.5 µM (active)
- CC50 (Vero [21]): 18.5 µM (active)

SMILES: COc1ccc(Br)cc1CNc1ccc(O)cc1
- IC50 [22]: 26.8 µM (active)
- IC50 (Protein Tat): 46.7 µM (inconclusive)
- CC50 [23]: > 40 µM (active)

SMILES: Fc1ccccc1NC(=S)N/N=C/c1ccccc1Br
- EC50 [16]: 0.578 µM (active)
- EC50 [24]: 0.219 µM (active)
- EC50 [17]: < 0.1 µM (active)
- EC50 (H4): > 120 µM (not active)
- EC50 [18]: 0.376 µM (active)
- EC50 [19]: 5.76 µM (active)
